In patent US12240862B2, “Inhibitors of peptidylarginine deiminases” (Gilead Sciences, Inc., priority 2020, dated 2025):

molecular target: T1, human PAD4 (Homo sapiens, UniProt Q9UM07); assay: In vitro PAD4 BAEE biochemical assay; settings: human PAD4, BAEE substrate; 5 nM PAD4, 2 mM calcium chloride, 3 mM BAEE; geometric mean of multiple experiments
T1 construct: human PAD4 (NM_012387), A2P663, was PCR amplified; His-SUMO (N, cleaved yes); made in house; host or cells: E. coli BL21(DE3)
Protocol: The PCR product was ligated into linearized pET-SUMO vector (Invitrogen, Carlsbad, CA), which is part of the Champion™ pET SUMO Protein Expression System. After sequence verification for the correct orientation, the pET-SUMO-hPAD4 expression plasmid was transformed into BL21(DE3) cells.
E. Coli BL21(DE3) cells were inoculated in LB medium with kanamycin at 37° C. until A600 nm reached about 0.5. Protein expression was induced by addition of 0.5 mM IPTG (final) and continued overnight at 16° C. at 220 rpm.
Cells were harvested by centrifugation at 5000 rpm for 10 minutes at 4° C. The pellet was resuspended in 300 ml lysis buffer (20 mM Tris-HCl, pH 8.0, 1 mM EDTA, 500 mM NaCl, 1 mM (tris(2-carboxyethyl)phosphine) (TCEP), 10% glycerol, and 1% Triton X100 and EDTA free protease inhibitor) and lysed by 3× passage through a microfluidizer (Microfluidics, Newton, MA) at 18,000 psi. The cell lysate was clarified by centrifugation at 30,000 rpm for 60 minutes at 4° C. […] Bound protein was eluted with a 0-100% linear gradient of 100 mL Ni-B buffer (Ni A buffer+0.5 M Imidazole).
The protein was then reloaded onto a Ni—HP column for a reverse purification step and recovered in flow through fraction. The protein with His-Sumo tag removed was then polished using a 16/60 Superdex-200 gel filtration column with gel filtration buffer (20 mM Tris pH 8.0, NaCl 400 mM and 1 mM TCEP). The fractions containing the protein were pulled and frozen at −80° C.
The enzymatic activity of human PAD4 was monitored in a biochemical assay in the presence or absence of compounds using the small peptidyl arginine mimic BAEE (Na-Benzoyl-L-arginine ethyl ester hydrochloride) as substrate. PAD4 activity led to deamination of BAEE and release of ammonia. Levels of ammonia were monitored by using an amine coupling reaction and were indicative of PAD4 enzymatic activity.
One hundred nanoliters of test compounds dissolved in DMSO at various concentrations were dispensed into a 384-well black OptiPlate using a Labcyte Echo instrument. Ten microliters of a solution of recombinant PAD4 and calcium chloride diluted in PAD4 assay buffer (50 mM MOPS [3-(N-morpholino) propanesulfonic acid], pH 7.6; 50 mM sodium chloride; 0.05% Tween-20; 2 mM dithiothreitol) was added to the compound-containing plate and was incubated for 30 minutes at 25° C. Ten microliters of a solution of BAEE (Sigma-Aldrich #B4500) diluted in PAD4 assay buffer was then added to start the reaction. Final concentrations were 5 nM PAD4, 2 mM calcium chloride, and 3 mM BAEE. The reaction mixture was incubated at 25° C. for 2 hours and was stopped with the addition of 10 microliters of a solution of 75 mM EDTA (Ethylenediaminetetraacetic acid) in PAD4 assay buffer. Thirty microliters of detection solution (5 mM o-phthalaldehyde, 50 mM MOPS [3-(N-morpholino) propanesulfonic acid], pH 7.6; 50 mM sodium chloride; 0.05% Tween-20; 5 mM dithiothreitol) was then added and the reaction was incubated for 1 hour at 25° C.

T1 sequence (Q9UM07 2-663): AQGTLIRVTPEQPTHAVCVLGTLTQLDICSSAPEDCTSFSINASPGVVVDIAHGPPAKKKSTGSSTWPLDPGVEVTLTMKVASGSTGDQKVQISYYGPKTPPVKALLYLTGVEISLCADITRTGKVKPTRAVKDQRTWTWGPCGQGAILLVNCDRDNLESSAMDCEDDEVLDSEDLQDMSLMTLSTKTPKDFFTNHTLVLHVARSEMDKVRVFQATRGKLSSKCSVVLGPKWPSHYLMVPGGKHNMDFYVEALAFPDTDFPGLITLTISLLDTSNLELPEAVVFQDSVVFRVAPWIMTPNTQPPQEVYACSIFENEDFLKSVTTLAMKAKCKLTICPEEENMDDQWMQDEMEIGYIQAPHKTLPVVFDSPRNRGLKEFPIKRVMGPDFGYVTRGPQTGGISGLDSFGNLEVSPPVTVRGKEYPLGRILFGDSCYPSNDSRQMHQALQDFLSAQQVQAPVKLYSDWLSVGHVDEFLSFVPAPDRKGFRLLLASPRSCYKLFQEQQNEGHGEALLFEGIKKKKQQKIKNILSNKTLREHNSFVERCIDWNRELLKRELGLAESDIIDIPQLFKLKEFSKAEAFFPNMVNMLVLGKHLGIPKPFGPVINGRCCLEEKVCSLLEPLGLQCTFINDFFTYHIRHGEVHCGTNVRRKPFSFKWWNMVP

SMILES	IC50 [nM]
COc1cc(C(=O)N2[C@H]3CC[C@@H]2[C@H](N)C3)cc2nc(-c3cc4ccc([C@@H](C)NC(=O)[C@H](C)OC)nc4n3CC3CC3)c(C)n12 [Example 34, (2~{S})-~{N}-[(1~{R})-1-[2-[7-[(1~{R},2~{R}, 4~{S})-2-amino-7-azabicyclo[2.2.1]heptane-7-carbonyl]-5-methoxy-3-methylimidazo [1,2-a]pyridin-2-yl]-1-(cyclopropylmethyl)pyrrolo[2,3-b]pyridin-6-yl]ethyl]-2-methoxypropanamide]	57.9
COc1cc(C(=O)N2C[C@H](N)C[C@@H](F)C2)cc2nc(-c3cc4ccc([C@@H](C)NC(=O)C56CC(F)(C5)C6)nc4n3CC3CC3)c(C)n12 [Example 36, ~{N}-[(1~{R})-1-[2-[7-[(3~{R}, 5~{R})-3-amino-5-fluoropiperidine-1-carbonyl]-5-methoxy-3-methylimidazo[1,2-a]pyridin-2-yl]-1-(cyclopropylmethyl)pyrrolo[2,3-b]pyridin-6-yl]ethyl]-3-fluorobicyclo[1.1.1] pentane-1-carboxamide]	369
COc1cc(C(=O)N2CCC[C@@H](N)CC2)cc2nc(-c3cc4ccc([C@@H](C)NC(=O)C56CC(F)(C5)C6)nc4n3CC3CC3)c(C)n12 [Example 38, ~{N}-[(1~{R})-1-[2-[7-[(4~{R})-4-aminoazepane-1-carbonyl]-5-methoxy-3-methylimidazo[1,2-a]pyridin-2-yl]-1-(cyclopropylmethyl)pyrrolo[2,3-b]pyridin-6-yl]ethyl]-3-fluorobicyclo[1.1.1] pentane-1-carboxamide]	30600
COc1cc(C(=O)N2[C@H]3CC[C@@H]2[C@H](N)C3)cc2nc(-c3cc4ccc([C@@H](C)NC(=O)CC(C)(C)OC)nc4n3CC3CC3)c(C)n12 [Example 39, ~{N}-[(1~{R})-1-[2-[7-[(1~{R},2~{R},4~{S})-2-amino-7-azabicyclo[2.2.1]heptane-7-carbonyl]-5-methoxy-3-methylimidazo[1,2-a]pyridin-2-yl]-1-(cyclopropylmethyl)pyrrolo[2,3-b]pyridin-6-yl]ethyl]-3-methoxy-3-methylbutanamide]	86.2
COc1cc(C(=O)N2[C@H]3CC[C@@H]2[C@H](N)C3)cc2nc(-c3cc4ccc([C@@H](C)NC(=O)[C@@H](C)OC)nc4n3CC3CC3)c(C)n12 [Example 40, (2~{R})-~{N}-[(1~{R})-1-[2-[7-[(1~{R},2~{R},4~{S})-2-amino-7-azabicyclo [2.2.1]heptane-7-carbonyl]-5-methoxy-3-methylimidazo [1,2-a]pyridin-2-yl]-1-(cyclopropylmethyl)pyrrolo[2,3-b]pyridin-6-yl]ethyl]-2-methoxypropanamide]	64.5
COc1cc(C(=O)N2[C@H]3CC[C@@H]2[C@H](N)C3)cc2nc(-c3cc4ccc([C@@H](C)NC(=O)C5(OC)CCC5)nc4n3CC3CC3)c(C)n12 [Example 41, ~{N}-[(1~{R})-1-[2-[7-[(1~{R},2~{R},4~{S})-2-amino-7-azabicyclo [2.2.1]heptane-7-carbonyl]-5-methoxy-3-methylimidazo [1,2-a]pyridin-2-yl]-1-(cyclopropylmethyl)pyrrolo[2,3-b]pyridin-6-yl]ethyl]-1-methoxycyclobutane-1-carboxamide]	27
COc1cc(C(=O)N2[C@H]3CC[C@@H]2[C@H](N)C3)cc2nc(-c3cc4ccc([C@@H](C)NC(=O)C5(OC)CC5)nc4n3CC3CC3)c(C)n12 [Example 42, ~{N}-[(1~{R})-1-[2-[7-[(1~{R},2~{R},4~{S})-2-amino-7-azabicyclo [2.2.1]heptane-7-carbonyl]-5-methoxy-3-methylimidazo [1,2-a]pyridin-2-yl]-1-(cyclopropylmethyl)pyrrolo[2,3-b]pyridin-6-yl]ethyl]-1-methoxycyclopropane-1-carboxamide]	23.3
COc1cc(C(=O)N2[C@H]3CC[C@@H]2[C@H](N)C3)cc2nc(-c3cc4ccc([C@@H](C)NC(=O)C5CC6(CCC6)C5)nc4n3CC3CC3)c(C)n12 [Example 43, ~{N}-[(1~{R})-1-[2-[7-[(1~{R},2~{R},4~{S})-2-amino-7-azabicyclo[2.2.1]heptane-7-carbonyl]-5-methoxy-3-methylimidazo [1,2-a]pyridin-2-yl]-1-(cyclopropylmethyl)pyrrolo[2,3-b]pyridin-6-yl]ethyl]spiro[3.3]heptane-2-carboxamide]	49.6
COc1cc(C(=O)N2[C@H]3CC[C@@H]2[C@H](N)C3)cc2nc(-c3cc4ccc([C@@H](C)NC(=O)C5(C(F)(F)F)CCC5)nc4n3CC3CC3)c(C)n12 [Example 44, ~{N}-[(1~{R})-1-[2-[7-[(1~{R},2~{R},4~{S})-2-amino-7-azabicyclo[2.2.1]heptane-7-carbonyl]-5-methoxy-3-methylimidazo [1,2-a]pyridin-2-yl]-1-(cyclopropylmethyl)pyrrolo[2,3-b]pyridin-6-yl]ethyl]-1-(trifluoromethyl) cyclobutane-1-carboxamide]	56.1
COc1cc(C(=O)N2[C@H]3CC[C@@H]2[C@H](N)C3)cc2nc(-c3cc4ccc([C@@H](C)NC(=O)C5CC(O)(C(F)(F)F)C5)nc4n3CC3CC3)c(C)n12 (some centres unmarked) [Example 45, ~{N}-[(1~{R})-1-[2-[7-[(1~{R},2~{R},4~{S})-2-amino-7-azabicyclo[2.2.1]heptane-7-carbonyl]-5-methoxy-3-methylimidazo [1,2-a]pyridin-2-yl]-1-(cyclopropylmethyl)pyrrolo[2,3-b]pyridin-6-yl]ethyl]-3-hydroxy-3-(trifluoromethyl) cyclobutane-1-carboxamide]	25.1
COc1cc(C(=O)N2[C@H]3CC[C@@H]2[C@H](N)C3)cc2nc(-c3cc4ccc([C@@H](C)NC(=O)c5cc(C)nc(Cl)c5)nc4n3CC3CC3)c(C)n12 [Example 46, ~{N}-[(1~{R})-1-[2-[7-[(1~{R},2~{R},4~{S})-2-amino-7-azabicyclo[2.2.1]heptane-7-carbonyl]-5-methoxy-3-methylimidazo [1,2-a]pyridin-2-yl]-1-(cyclopropylmethyl)pyrrolo[2,3-b]pyridin-6-yl]ethyl]-2-chloro-6-methylpyridine-4-carboxamide]	33.4
COc1cc(C(=O)N2[C@H]3CC[C@@H]2[C@H](N)C3)cc2nc(-c3cc4ccc([C@@H](C)NC(=O)c5ccnc(C)c5)nc4n3CC3CC3)c(C)n12 [Example 47, ~{N}-[(1~{R})-1-[2-[7-[(1~{R},2~{R},4~{S})-2-amino-7-azabicyclo[2.2.1]heptane-7-carbonyl]-5-methoxy-3-methylimidazo [1,2-a]pyridin-2-yl]-1-(cyclopropylmethyl)pyrrolo[2,3-b]pyridin-6-yl]ethyl]-2-methylpyridine-4-carboxamide]	24.2
COc1cc(C(=O)N2[C@H]3CC[C@@H]2[C@H](N)C3)cc2nc(-c3cc4ccc([C@@H](C)NC(=O)c5ccc(Cl)nc5)nc4n3CC3CC3)c(C)n12 [Example 48, ~{N}-[(1~{R})-1-[2-[7-[(1~{R},2~{R},4~{S})-2-amino-7-azabicyclo[2.2.1]heptane-7-carbonyl]-5-methoxy-3-methylimidazo [1,2-a]pyridin-2-yl]-1-(cyclopropylmethyl)pyrrolo[2,3-b]pyridin-6-yl]ethyl]-6-chloropyridine-3-carboxamide]	34.4
COc1cc(C(=O)N2[C@H]3CC[C@@H]2[C@H](N)C3)cc2nc(-c3cc4ccc([C@@H](C)NC(=O)c5ccc(C)nc5)nc4n3CC3CC3)c(C)n12 [Example 49, ~{N}-[(1~{R})-1-[2-[7-[(1~{R},2~{R},4~{S})-2-amino-7-azabicyclo[2.2.1]heptane-7-carbonyl]-5-methoxy-3-methylimidazo [1,2-a]pyridin-2-yl]-1-(cyclopropylmethyl)pyrrolo[2,3-b]pyridin-6-yl]ethyl]-6-methylpyridine-3-carboxamide]	22.2
